# Counter-ions that a name gives are not always drawn. Like-named read-outs stand apart in the source and are kept apart here.
# Key:
# [1] = system: C. parvum HNJ-1 strain; test: In vitro C. parvum growth inhibition assay (Sporo-Glo staining, fluorescence microscopy count in infected HCT-8 cells); format: cell-based, Cryptosporidium parvum; settings: for EC50 / inhibition at 1 µM: Cryptosporidium parvum; for EC50: read-out: EC50 value; for inhibition at 1 µM: read-out: Parasite inhibition (%); for Selectivity index: ratio of CC50 (HCT-8) / EC50 (C. parvum)
# Experimental: The primary screening of compounds for C. parvum was performed as follows: HCT-8 cells were seeded in 96-well plates at a density of 2 × 10^4 cells/well and allowed to grow overnight. Before infecting cells, Cryptosporidium oocysts were excysted to sporozoites. 87 compounds were tested against C. parvum at a single concentration of 1 μM. Each compound was tested once. Infected HCT-8 cells and uninfected HCT-8 cells were used as positive and negative controls, respectively, in medium containing 0.1% DMSO. Nitazoxanide was used as a standard comparative drug. In vitro inhibition assays were carried out as previously described. Briefly, oocysts were suspended in 1 ml of 0.1% sodium hypochlorite in PBS, incubated for 5 min at 4°C, centrifuged for 10 min at 3000 rpm, and washed three times in PBS. The oocysts were then suspended in excystation solution consisting of 0.75% sodium taurocholate and 0.25% trypsin dissolved in 0.1 M phosphate buffer (with 93.4 mM K2HPO4 and 6.5 mM KH2PO4; pH 8.0) and incubated at 37°C for 1 h. The oocyst/sporozoite suspensions were then rinsed in 1 x PBS (with 137 mM NaCl, 2.7 mM KCl, 8 mM Na2HPO4, and 2 mM KH2PO4; pH 7.5) once more before being filtered through a 5-μm pore-size PVDF filter (Millipore, Burlington, MA, USA) with 5 ml syringe to remove the oocyst wall. HCT-8 cells were seeded in 96-well plates (Thermo Fisher Scientific Inc., MA, USA) and incubated overnight. The cells were then infected with C. parvum sporozoites (4 ×10^4 sporozoites/well) containing in RPMI-1640 medium for 3 h. After 3h inoculation, the non-infected parasite or debris were washed with new RPMI-1640 media. At this point, in RPMI-1640 medium containing 1 μM library compounds were added. Infected cells were incubated for an additional 45 h. Following incubation, the infected cells were fixed for 10 minutes in ice-cold 100% methanol at room temperature. Plates were then carefully rinsed 3 times with PBS. The parasite infected cells were then blocked with 1% bovine serum albumin (BSA) in PBS for 30 minutes and then stained with Sporo-Glo (an anti-Cryptosporidium polyclonal antibody) (Waterborne Environmental, Inc., VA, USA) protected from light for 1 h at room temperature. Finally, cells were washed twice with 1 x PBS-T (1 x PBS supplemented with 0.01% Tween). A Keyence BZ-II 9000 was used to capture the images (KEYENCE, Osaka, Japan). The plates were imaged with a HS all-in-one fluorescence microscope using a 20 x objective. The image output was imported into Microsoft excel for data organization and analyses. All C. parvum parasite in the well were counted.
# For a second investigation, four selective hit compounds were used to determine the half-maximum inhibitory concentration (EC50). The parasites were treated with various doses of compounds (ranging from 0.008–1 μM). HCT-8 cells (2 × 10^4 cells/well) were grown for 24 h before being infected with 4 × 10^4 C. parvum sporozoites in 96-well plates. […] Sporo-Glo was used for C. parvum staining as described above. Fluorescence microscopy with a Keyence BZ-II 9000 imager was used to count all Cryptosporidium in the wells (KEYENCE, Osaka, Japan). EC50 vales were determined by analyzing dose-response curves made by GraphPad Prism (GraphPad Software, CA, USA).
# [2] = system: C. parvum HNJ-1 strain; test: In vivo C. parvum growth inhibition assay (oocyst shedding in feces of infected SCID mice, sugar flotation); set-up: species or system Cryptosporidium parvum; settings: for numbers of oocysts discharged in the feces: 50, 25 and 12.5 mg/kg oral, infected SCID mice; for % of oocysts shedding / % reduction in oocysts shedding: initial dose-finding (S1 Table), 1 mouse; for % reduction in oocyst shedding: SCID mice n=3, vs untreated infected control
# [3] = system: C. parvum; test: Histopathological analysis and immunohistochemistry of ileum of C. parvum-infected mice; format: in vivo, Cryptosporidium parvum; set-up: key to severity of C. parvum infection in ileum, Score: -, no oocysts; 1+, mild focal infection; 2+, moderate multifocal infection; 3+, severe diffuse infection; settings: for severity of C. parvum infection in ileum, Score: HE and immunohistochemistry, most severe area, day 14, dose not stated; for reduction of oocysts, histopathological and scanning electron microscopy findings: ileum of infected treated mice (S2 Fig)
# Experimental: (§1) We performed a histopathological analysis to evaluate the growth inhibitory effects and toxicity of the hit compounds in C. parvum-infected mice. In brief, ileum was collected, fixed in 10% neutral buffered formalin, and paraffin-embedded. Each section was cut to a thickness of 4 μm for hematoxylin and eosin (HE) staining and immunohistochemistry. Immunohistochemistry (IHC) was performed following standard techniques using the Envision+ system (Agilent Technologies, Inc., Santa Clara, CA) and 3,3-diaminobenzidine (DAB)(Dojindo, Kumamoto, Japan). Anti-Toxoplasma gondii (RH strain) rabbit polyclonal IgG (Abcam, Cambridge, UK) was used as the primary antibody. The antibody cross reacts with C. Parvum. To reduce the endogenous peroxidase activity, the sections were incubated with 3% H2O2 for 5 minutes. Sections were incubated with primary antibodies overnight at 4°C. After washing with PBS with Tween 20 (PBST), sections were incubated with Envision+ single polymer solution (Agilent Technologies Inc.) for 30 minutes at room temperature. Sections were counterstained with Mayer’s hematoxylin. The severity of C. parvum infection was evaluated in the most severe area, and scored from—to 3+ (-, no oocysts; 1+, mild focal infection; 2+, moderate multifocal infection; 3+, severe diffuse infection). Sub-effects of drugs (hepatocellular damage) were evaluated for major histological changes in karyomegaly, hepatocellular hypertrophy, and interstitial fibrosis/inflammation. We also checked the organs (liver, heart, lung, kidney, and intestines) alteration at necropsy whether it has abnormal or normal.
# [4] = for body weight of treated infected mice: initial dose-finding doses, 11 consecutive days (S1 Fig)
# Experimental: The growth inhibitory effect of the hit compounds was assessed in a mouse model infected with C. parvum oocysts. In this experiment, four-week-old female SCID mice (Charles River Laboratories, Shizuoka, Japan) were used. In the infected groups, mice were orally inoculated with 1.0 × 10^5 C. parvum oocysts by using sterile gavage needles. Initially, four compounds were tested at different concentrations to figure out the optimum dosages. Six groups of mice were given oral dosages of 50, 25, and 12.5 mg/kg body weight (BW) of two compounds (alisol-A and alisol-B). […] Bufotalin was given orally at three different doses to the other mouse group: 0.1, 0.05, and 0.025 mg/kg BW. […] The positive control group consisted of infected and untreated mice, whereas the negative control group consisted of noninfected and untreated mice. Treatment began on the third day after infection and lasted until the thirteenth day. The body weight and condition were checked every day, and treatment was given based on the body weight. On days 1, 3, 6, 7, 9, 12, 14, fecal samples were taken. The total number of oocysts per gram was calculated after counting the oocysts in the feces using the sugar flotation method. The treated and untreated mice were euthanized by cervical dislocation on day 14, and a thorough necropsy was performed.
# [5] = Host cell viability assay (Cell-Titer Glo)
# Experimental: (§2) HCT-8 cells (4 × 10^4 cells/well) 100 μl were seeded in 96-well plates, cultured for 24 h, and then treated for 48 h with different concentrations of hit compounds (10^1, 1, 10^−1, 10^−2, 10^−3, 10^−4 μM). After a 48-h incubation period, equilibrate the 96-well plates in room temperature (RT) for 30 minutes. Then, equal volume of Cell-Titer Glo (Promega) reagent was added to each treated well, the plate was shaken on an orbital shaker for 2 minutes then incubated for 10 minutes at RT. The luminescence was quantified by the GloMax Navigator plate reader (Promega, Japan) and the cell viability was evaluated as directed by the kit manufacturer. The luminescence signal of control wells containing DMSO was set to 100% cell viability. […] Graph Pad Prism 7.0.1 was used to determine CC50 values.
# [6] = system: HCT-8 cells; test: Host cell viability assay (Cell-Titer Glo); settings: HCT-8 cells, 48 h, 1 μM
# Experimental: as §2
# [7] = Liver histology (sub-effects of drugs, hepatocellular damage) in treated mice; format: in vivo, SCID mice; settings: HE stain, infected treated mice (S3 Fig)
# Experimental: as §1
# [8] = 1 μM, 45 h, C. parvum HNJ-1 strain in HCT-8 cells, first screen
# [9] = human, HCT-8 cells, Host cell viability (%), 48 h, 1 μM
# [10] = human, Host cell viability (%), HCT-8 cells, 48 h, 1 μM
smiles,measurement,setting,value
C[C@H](C[C@H](O)[C@@H](O)C(C)(C)O)C1=C2C[C@H](O)[C@H]3[C@@]4(C)CCC(=O)C(C)(C)[C@@H]4CC[C@]3(C)[C@@]2(C)CC1 [Alisol-A],EC50,"[1]; HCT-8, C. parvum HNJ-1, 0.008–1 μM, 45 h, mean of three experiments",123 ± 6.7 nM
same,inhibition at 1 µM,[1]; [8],78.1%
same,Selectivity index,[1],484.4
same,numbers of oocysts discharged in the feces,[2],no significant reduction
same,% of oocysts shedding,"[2]; 12.5 mg/kg BW, 11 days",55.6%
same,% reduction in oocysts shedding,"[2]; 12.5 mg/kg BW, 11 days",44.4%
same,"severity of C. parvum infection in ileum, Score",[3],3+
same,"reduction of oocysts, histopathological and scanning electron microscopy findings",[3],no notable reduction of oocysts
same,body weight of treated infected mice,[4],not significant
same,body weight of treated infected mice,[4]; listed as alisol-A,no significant difference
same,adverse effects / death of treated mice,"[4]; oral, at 50 and 25 mg/kg body weight, infected SCID mice",died
same,CC50 at 48 h,"[5]; human, HCT-8 cells",59600 nM
same,"viability at 48 h, 1 µM",[5]; [9],> 95%
same,Host cell viability (%),[6],99.5%
C[C@H](C[C@H](O)[C@H]1OC1(C)C)C1=C2C[C@H](O)[C@H]3[C@@]4(C)CCC(=O)C(C)(C)[C@@H]4CC[C@]3(C)[C@@]2(C)CC1 [Alisol-B],EC50,"[1]; HCT-8, 45 h",79.6 ± 13.8 nM
same,inhibition at 1 µM,"[1]; HCT-8, 45 h",92.9%
same,Selectivity index,[1],460.6
same,numbers of oocysts discharged in the feces,[2],no significant reduction
same,% of oocysts shedding,"[2]; 12.5 mg/kg BW, 11 days",61.3%
same,% reduction in oocysts shedding,"[2]; 12.5 mg/kg BW, 11 days",38.7%
same,"severity of C. parvum infection in ileum, Score",[3],2+
same,"reduction of oocysts, histopathological and scanning electron microscopy findings",[3],no notable reduction of oocysts
same,adverse effects / death of treated mice,"[4]; mouse, in vivo",died
same,CC50 at 48 h,[5]; human,36700 nM
same,"viability at 48 h, 1 µM",[5]; [10],> 95%
same,Host cell viability (%),[6],97.6%
"CN1[C@@H]2CC[C@H]1C[C@@H](OC(=O)C(CO)c1ccccc1)C2 (stereo partly drawn) [Atropine sulfate, reference compound]",EC50,"[1]; HCT-8, 45 h",254 ± 30.3 nM
same,inhibition at 1 µM,"[1]; HCT-8, 45 h",72.3%
same,"No. of oocysts, Mean","[2]; 50 mg/kg BW oral, 11 days, SCID mice n=3, mean of days 3, 6, 7, 9, 12, 14",96.6
same,% reduction in oocyst shedding,"[2]; 50 mg/kg BW oral, 11 days",56.2%
same,"No. of oocysts, Mean","[2]; 100 mg/kg BW oral, 11 days, SCID mice n=3, mean of days 3, 6, 7, 9, 12, 14",91.1
same,% reduction in oocyst shedding,"[2]; 100 mg/kg BW oral, 11 days",58.7%
same,"No. of oocysts, Mean","[2]; 200 mg/kg BW oral, 11 days (day 3–13 p.i.), SCID mice n=3, mean of oocysts shed on days 3, 6, 7, 9, 12, 14",71.1
same,% reduction in oocyst shedding,"[2]; 200 mg/kg BW oral, 11 days",67.8%
same,% of oocysts shedding,"[2]; 25 mg/kg BW, 11 days",75.2%
same,% reduction in oocysts shedding,"[2]; 25 mg/kg BW, 11 days",24.8%
same,% reduction in oocysts shedding,"[2]; 50 mg/kg BW, 11 days",50.9%
same,% of oocysts shedding,"[2]; 100 mg/kg BW, 11 days",45.1%
same,% reduction in oocysts shedding,"[2]; 100 mg/kg BW, 11 days",54.9%
same,"severity of C. parvum infection in ileum, Score",[3],2+
same,body weight of treated infected mice,[4],not significant
same,histological findings in liver,[7],inflammation
CC(=O)O[C@H]1[C@H]2O[C@]23[C@@H]2CC[C@]4(O)C[C@@H](O)CC[C@]4(C)[C@H]2CC[C@]3(C)[C@H]1c1ccc(=O)oc1 [Cinobufotalin],inhibition at 1 µM,"[1]; HCT-8, 45 h",70.7%
same,"viability at 48 h, 1 µM",[5]; [10],97.8%
COc1cc(CNC(=O)CCCCCCC(C)C)ccc1O [Dihydrocapsaicin],inhibition at 1 µM,[1]; [8],70.8%
same,"viability at 48 h, 1 µM",[5]; [9],98.4%
CC(C)=CCC[C@](C)(O[C@@H]1O[C@H](CO)[C@@H](O)[C@H](O)[C@H]1O)[C@H]1CC[C@]2(C)[C@@H]1[C@H](O)C[C@@H]1[C@@]3(C)CC[C@H](O)C(C)(C)[C@@H]3[C@@H](O[C@@H]3O[C@H](CO)[C@@H](O)[C@H](O)[C@H]3O[C@@H]3O[C@@H](C)[C@H](O)[C@@H](O)[C@H]3O)C[C@]12C [Ginsenoside-Re],inhibition at 1 µM,[1]; [8],71.2%
same,"viability at 48 h, 1 µM",[5]; [9],98.7%
CC(C)=CCC[C@](C)(O[C@@H]1O[C@H](CO)[C@@H](O)[C@H](O)[C@H]1O)[C@H]1CC[C@]2(C)[C@@H]1[C@H](O)C[C@@H]1[C@@]3(C)CC[C@H](O)C(C)(C)[C@@H]3[C@@H](O[C@@H]3O[C@H](CO)[C@@H](O)[C@H](O)[C@H]3O)C[C@]12C [Ginsenoside-Rg1],inhibition at 1 µM,[1]; [8],67.9%
same,"viability at 48 h, 1 µM",[5]; [9],99.1%
CC(C)=CC[C@@H](O)C1=CC(=O)c2c(O)ccc(O)c2C1=O [Shikonin],inhibition at 1 µM,"[1]; HCT-8, 45 h",66.2%
